From patent US10058587B2, “Peptide composition for cancer treatment by inhibiting TRPV6 calcium channel activity” (priority 2008, dated 2018)
Entries after “also recorded” stand apart in the source; their conditions may differ. Where no end group is shown, it is not given here.

Legend:
human TRPV6b = target: T1, human TRPV6b (Homo sapiens, UniProt Q9H1D0); assay: Whole-cell patch clamp of calcium store operated current (ISOC) through TRPV6 in transfected LnCaP cells; assay type: cell-based
T1 construct: expressed in transfected cells; host or cells: LnCaP (ATCC CRL-1740), human lymph node prostate cancer cells
T1 sequence (Q9H1D0 41-765 limits assumed): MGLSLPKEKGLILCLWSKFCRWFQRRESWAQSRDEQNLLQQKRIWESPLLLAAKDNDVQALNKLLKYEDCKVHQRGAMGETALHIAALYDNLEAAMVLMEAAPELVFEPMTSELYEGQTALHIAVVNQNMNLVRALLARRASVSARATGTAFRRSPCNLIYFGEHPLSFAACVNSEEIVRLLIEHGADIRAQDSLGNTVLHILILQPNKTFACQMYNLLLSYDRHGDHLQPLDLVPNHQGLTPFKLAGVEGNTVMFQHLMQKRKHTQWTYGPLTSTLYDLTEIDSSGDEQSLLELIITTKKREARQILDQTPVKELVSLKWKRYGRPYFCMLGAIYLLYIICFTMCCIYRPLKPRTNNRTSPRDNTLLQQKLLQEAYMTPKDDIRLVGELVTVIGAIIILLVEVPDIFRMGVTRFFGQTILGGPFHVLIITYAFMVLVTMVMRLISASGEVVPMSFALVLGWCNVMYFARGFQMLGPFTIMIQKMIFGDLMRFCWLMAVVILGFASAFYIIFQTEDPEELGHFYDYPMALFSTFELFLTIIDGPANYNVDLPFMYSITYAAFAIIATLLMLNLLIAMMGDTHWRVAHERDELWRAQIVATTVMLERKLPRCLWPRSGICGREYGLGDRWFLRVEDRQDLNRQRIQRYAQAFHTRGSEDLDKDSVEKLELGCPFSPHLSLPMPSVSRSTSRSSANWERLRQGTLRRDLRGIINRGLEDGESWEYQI
Description: An expression vector (pCAGS-IRES-hTRPV6b) (Bodding et al. 2003) containing the nucleotide code for human TRPV6b was transfected into and expressed by human lymph node prostate cancer (LnCaP, ATCC CRL-1740). Patch clamping with whole-cell current acquisition was used to measure the calcium current through this channel. Cells were treated and calcium store operated current (ISOC) was measured with either SorC13 (n=90) or SorC27 (n=30) in a closed-circuit perfusion for 3 min at each of cumulative concentrations of 0 (baseline), 100 nM, 500 nM 1 uM, 30 uM and 100 uM. Washout perfusion was done at 2 mL/min for 3 min. […] Further, both C-peptides are very strong inhibitors of calcium current through the TRPV6 channel with inhibition constants in the 100 nM range.

[1] = Storage stability of solid and aqueous solution; assay type: physicochemical
Description: Additionally, the peptides have greater shelf-life stability and solution stability due to the presence of fewer sensitive disulfide bonds (soricidin has 3 disulfide bonds). The peptides of the invention optionally have no disulfide bonds. An absence of disulfide bonds provides a very long shelflife during storage under minimal refrigeration or at room temperature as a solid. Additionally when the peptides of the invention with no disulfide bonds are dissolved in water, cleavage of disulfide bonds cannot occur. […] The formation of inter-peptide S—S bonds also results in precipitation of soricidin. The peptides of the invention, such as SorC13 and SorC27, are typically stable in aqueous solution at 8° C. for at least 3 weeks with no change in purity as measured by HPLC.
“Very stable” in the above table means that there was no observable degradation of the solid peptides over 6 months. As a solution in sterile water, the peptides are typically stable for at least 3 weeks at 8° C. and at −20° C., are expected to be stable more than 1 year.

[2] = system: human SKOV3 ovarian cancer tumors; assay: SKOV3 ovarian cancer xenograft, SorC27 versus saline and CAT (Example 14); assay type: in vivo, NOD/SCID mice
Description: Tumor volumes (V) are calculated by caliper measurement using standard measurements of the width (W), length (L) and thickness (T) of tumors. Animals are randomized into treatment groups so that the median tumor volumes of each group were similar at the start of dosing. % T/C values, as a measure of efficacy, are determined where C refers to volume of control or untreated tumor, and T refers to volume of treated tumor.
SKOV3 cells were obtained from ATCC, cultured and expanded to suitable numbers to establish xenografts in mice and then formulated into gel pellets and grafted under the renal capsule of surrogate NOD/SCID mice in order to establish the tumors. Tumors are then permitted to develop in vivo until the majority reach 100-200 mm^3 in tumor volume, which typically requires 1-2 weeks following implantation. Once xenografts are established, they are harvested and cut into multiple uniform pieces. Sixteen to eighteen pieces were implanted subcutaneously into each NOD/SCID mouse for experimentation. After 2 days, the animals are treated with either the test peptides or CAT or combinations.
Mice implanted with SKOV3 cells as detailed above received saline (control), SorC27 (400 mg/kg), by i.p. injection every day for 12 days or CAT injections one every week. The tumor volume and body weights were measured every day. As well, general health of the animals was monitored every day. The results shown in FIG. 12 are presented in terms of tumor load normalized to body weight. […] By Day 12 there was no statistically significant difference between CAT and SorC27 at this dose.

[3] = 400 mg/kg i.p. every day for 12 days

EGKLSSNDTEGGLCKEFLHPSKVDLPR [SorC27]
IC50 (human TRPV6b): 140 nM | Kd (human TRPV6b): 140 nM | Stability in aqueous solution @ −20° C. [1]: Very stable | Stability solid @ Room Temp. [1]: Very stable | Stability solid @ −20° C. [1]: Very stable | % T/C ratio (mean tumour volume of treated/mean tumour volume of control) [2, 3]: 39.9% | decrease in tumour growth [2, 3]: 60.1% | tumor volume normalized to body weight versus control saline ([2]; over 12 days, SorC27 400 mg/kg i.p. daily, CAT once every week, 400 mg/kg): greatly reduced tumor volume; also recorded: reduced the tumor volume significantly
